A word on the % inhibition: it is the relative decrease from the control value, in per cent. By viability is commonly meant the share of living cells, or the viability signal relative to a control.

Here are results for 6 compounds from publication PMC10287695, “Non-covalent inhibitors of thioredoxin glutathione reductase with schistosomicidal activity in vivo” (Nature Communications, 2023).

Where two headings read alike, the source gives them in different places.

In one data set the test system is S. mansoni adult worms. Description: GSH/GSSG ratio in ex vivo adult worms. The data set is classed as cell-based. Particulars: for Ratio GSH/GSSG / % Ratio GSH/GSSG: first data set (r117-133); for Ratio GSH/GSSG: baseline 55.82; for % Ratio GSH/GSSG: baseline = 100. Here is the method:
We assessed GSH/GSSG levels experimentally by treating S. mansoni adult worms with 50 µM of compounds, or respective controls 5 µM Auranofin, 50 µM PZQ or 50 µM MZM and 0.01% DMSO for 3 h. Worm homogenate was prepared by washing three times with PBS to remove residual compounds and ten volumes of ice cold 5% sulfosalicylic acid was added. Worms were manually homogenized on ice using VWR Pellet Mixer Adaptor. The worm suspension was centrifuged at 14000 × g, 4 °C for 10 min and the acid supernatants transferred. An equal volume of ice-cold neutralization buffer (500 mM HEPES, pH 8.0) was added to the acid supernatants.
GSH/GSSG assay was performed by diluting the acid supernatant (5-fold) with ice-cold dilution buffer (250 mM HEPES, pH 7.5). Using white opaque luminescence plate on ice, 25 µl of the diluted worm acid supernatant was added each well in triplicates. Total glutathione lysis reagent and GSSG lysis reagent, which contains alkylating agent N-ethylmaleimide (25 mM) were prepared following manufactures protocol and added to respective wells along with blank for background. Total glutathione lysis reagent or oxidized glutathione lysis reagent (25 µl) was added to respective wells containing worm acid supernatants and the plate was shaken for 5 min. Luciferin generation reagent (LGR) (50 µl) was added to all wells, briefly shaken and incubated at room temperature for 30 min. Luciferin detection reagent (LDR) (100 µl) was added to all wells, briefly shaken and incubated for 15 min at room temperature and the luminescence measured using microplate imager (BioTek Cytation3). GSH/GSSH ratio for DMSO control and compounds were calculated using (Net DMSO total glutathione RFU) – (Net DMSO GSSG RFU)/ (Net DMSO GSSG RFU)/2 and (Net inhibitor total glutathione RFU) – (Net inhibitor GSSG RFU)/ (Net inhibitor GSSG RFU)/2 respectively.

Data set [1] has as its system S. mansoni newly transformed schistosomula (NTS). The experiment in a line: Schistosomicidal activity ex vivo, NTS (Cell Titer Glo). As to conditions: for LD50 ex vivo S. mansoni NTS: 24 h exposure, Cell TiterGlo; for viability at 0.5 µM / viability at 1 µM / viability at 5 µM / viability at 10 µM / viability at 20 µM / viability at 30 µM: Schistosoma mansoni. The data set is classed as cell-based. Here is the method: Oncomelania hupensis subsp. hupensis, Chinese strain, infected with S. japonicum, Chinese strain, and Biomphalaria glabrata, strain NMRI, infected with S. mansoni, strain NMRI, were provided by the NIAID Schistosomiasis Resource Center for distribution through BEI Resources, NIAID, NIH. After infections were patent, snails were exposed to bright light for 1 hr to obtain cercariae. Cercariae were mechanically transformed to schistosomula. Briefly, cercariae were placed on ice for 30 min and then centrifuged at 350 × g for 10 mins. The supernatant was decanted and 2 ml of serum-free M199 medium was added to cercarial pellets and vortexed for 1 min until cercarial tails were detached. NTS were purified by layering on 4 °C Percoll gradient suspension containing Eagle’s minimum essential medium, penicillin-streptomycin (10,000 U per ml penicillin/10,000 U per ml streptomycin), and 1 M HEPES in 0.85% NaCl with cercariae suspension and centrifuged at 500 × g for 15 min. Cercarial pellets were resuspended and washed thrice in serum-free M199 medium and collected at 100 × g for 5 min. NTS (240) were transferred to U-bottom 96 well assay plates containing 200 µl of M199 medium supplemented with 5.5 mM D-glucose, penicillin-streptomycin and 5% heat inactivated fetal bovine serum and incubated at 37 °C in a 5% CO2 incubator overnight.
DMSO formulated compounds were diluted with phenol red free M199 medium or RPMI medium for NTS or juvenile and adult worms, respectively, at <1% DMSO final concentrations. NTS, juvenile and adult worms from overnight cultures were tested against compounds in triplicate. Controls were treated with DMSO alone or 5 µM AF as a positive control in appropriate medium. Worm viability was assessed at 24 or 72 h by measuring ATP content of worms using Cell Titer Glo Assay (Promega) as described. Schistosome viabilities in the presence of the compounds were assessed using this formula: % Viability = Averages of Test / Averages of DMSO Control x 100.

A further data set addresses T1, Human GR (Homo sapiens, UniProt P00390).
T1 construct: made in house
T1 sequence (P00390 44-522): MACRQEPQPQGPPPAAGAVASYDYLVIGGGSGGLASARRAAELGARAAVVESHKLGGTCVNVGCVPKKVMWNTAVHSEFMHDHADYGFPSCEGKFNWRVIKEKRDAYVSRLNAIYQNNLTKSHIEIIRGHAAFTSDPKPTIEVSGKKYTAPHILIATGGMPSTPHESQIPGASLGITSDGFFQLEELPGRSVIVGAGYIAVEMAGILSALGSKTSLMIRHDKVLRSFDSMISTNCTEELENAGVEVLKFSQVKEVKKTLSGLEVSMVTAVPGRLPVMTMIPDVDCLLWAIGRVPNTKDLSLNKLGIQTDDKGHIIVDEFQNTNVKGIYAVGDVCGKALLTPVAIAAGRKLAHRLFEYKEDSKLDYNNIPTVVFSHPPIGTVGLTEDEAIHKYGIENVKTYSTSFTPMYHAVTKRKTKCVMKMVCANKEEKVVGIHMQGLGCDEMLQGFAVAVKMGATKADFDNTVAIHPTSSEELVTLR
Description: Human GR enzyme inhibition (GSSG reduction, NADPH oxidation). The data set is classed as biochemical. As to conditions: for % inhibition: hGR. Here is the method:
Recombinant TGR, human TrxR1, B. malayi (Bm)TrxR and human GR proteins were expressed and purified as described[20],[69],[79]. The codon optimized sequence for P. falciparum (PfTrxR, https://www.ncbi.nlm.nih.gov/protein/CAA60574.1/) with an N-terminal 6-His tag was synthesized and inserted into pET15b (GenScript) and expressed in BL21 (DE3) cells and purified as described for human GR[20]. TGR and TrxR enzyme inhibition assays were performed in triplicate at 25 °C as described[20] in 0.1 M potassium phosphate (pH 7.4), 10 mM EDTA, 100 µM NADPH and 0.01% Tween-20. TGR, human TrxR1 and BmTrxR (all at 4 nM) and PfTrxR (50 nM) were preincubated with the compounds for 15 min. The reaction was started with addition of an equal volume of DTNB (6 mM) and NADPH (100 µM) and the increase in A412 during the first 3 min was recorded. […] […] Activity was initiated with the addition of 1 mM GSSG and 100 μM NADPH and initial rates of NADPH oxidation were monitored at 340 nm. The reactions were done in triplicate. The IC50 was calculated in GraphPad Prism.

The mark [2] stands for this setting: 15 minutes pre-incubation, compound 15 µM.
The mark [3] stands for this setting: 15 minutes pre-incubation, compound 30 µM.
The mark [4] stands for this setting: 15 minutes pre-incubation, compound 66.7 µM.
[5] abbreviates: 6 hours pre-incubation, compound 15 µM.
Where [6] appears, read: 6 hours pre-incubation, compound 30 µM.
Setting [7] is: 6 hours pre-incubation, compound 66.7 µM.

As to `CC(=O)OC[C@H]1O[C@@H]([S-])[C@H](OC(C)=O)[C@@H](OC(C)=O)[C@@H]1OC(C)=O.CCP(CC)CC.[Au+]` [AF, auranofin, reference compound], the “Ratio GSH/GSSG” value in the data set with S. mansoni adult worms (1 hr) was found to be 8.34; in the data set on S. mansoni adult worms (3 hr), 4.85. For the same compound, the entries for the “% Ratio GSH/GSSG” value with S. mansoni adult worms (1 hr) and with S. mansoni adult worms (3 hr) were 14.9481% and 8.693%, respectively. In addition, the “Decrease (%) in GSH/GSSG ratio” value in the data set with S. mansoni adult worms (adult worms, 3 h exposure to compounds at 50 μM) is reported as 91%. The “LD50 ex vivo S. mansoni NTS” value in data set [1] worked out at 0.31 ± 0.02 µM. For the same compound, the “% viability” value in data set [1] (S. mansoni NTS, Conc. 0.25 µM) worked out at 60.0497%; in data set [1] (S. mansoni NTS, Conc. 0.5 µM), 36.3261%; in data set [1] (S. mansoni NTS, Conc. 1 µM), 18.3613%; in data set [1] (S. mansoni NTS, Conc. 2 µM), 10.7245%; in data set [1] (S. mansoni NTS, Conc. 5 µM), 0.4904%.

Consider `Cc1oc(-c2ccccc2)nc1CN[C@@H]1C[C@@H]2C[C@H]([C@H]1C)C2(C)C` [C3], for which the “% inhibition” value at Human GR (setting [2]) is -2.234%; at Human GR (setting [3]), -5.497%; at Human GR (setting [4]) it was -7.805%; at Human GR (setting [5]), -0.8033%; at Human GR (setting [6]), -0.8345%; at Human GR (setting [7]) it was -0.3955%. The “% viability” value in data set [1] (S. mansoni NTS, Conc. 5 µM) is recorded as 6.85%; in data set [1] (S. mansoni NTS, Conc. 15 µM), 0.6968%; in data set [1] (S. mansoni NTS, Conc. 30 µM), 0.5581%; in data set [1] (S. mansoni NTS, Conc. 50 µM), 0.6054%.

Take `Cc1oc(-c2ccc3ccccc3c2)nc1CNC1CCCCCC1` [C5]: the “% inhibition” value at Human GR (setting [2]) is listed as -0.1784%; on Human GR (setting [3]), -0.6429%; at Human GR (setting [4]) it was -2.462%; on Human GR (setting [5]), -0.4334%; on Human GR (setting [6]) it was -1.271%; at Human GR (setting [7]), -0.3907%. In addition, the “% viability” value was found to be 80.9812% in data set [1] (S. mansoni NTS, Conc. 1 µM); 52.5668% in data set [1] (S. mansoni NTS, Conc. 5 µM); 62.9498% in data set [1] (S. mansoni NTS, Conc. 15 µM); 0.09782% in data set [1] (S. mansoni NTS, Conc. 35 µM); 0.07949% in data set [1] (S. mansoni NTS, Conc. 50 µM).

As to `C[C@@H]1[C@H]2C[C@@H](C[C@H]1NCc1nc3ccccc3n1C)C2(C)C` [C12], the hGR % inhibition is on record as -0.9179% on Human GR (15 minutes pre-incubation, 15 µM); -2.193% on Human GR (15 minutes pre-incubation, 30 µM); -0.3071% at Human GR (15 minutes pre-incubation, 66.7 µM); -3.5243% on Human GR (6 hours pre-incubation, 15 µM); -2.022% on Human GR (6 hours pre-incubation, 30 µM); -0.874% on Human GR (6 hours pre-incubation, 66.7 µM). The “% viability” value was 95.6217% in data set [1] (S. mansoni NTS, 5 µM, relative to Worm + M199 control); 91.9573% in data set [1] (S. mansoni NTS, 15 µM, relative to Worm + M199 control); 88.4326% in data set [1] (S. mansoni NTS, 30 µM, relative to Worm + M199 control); 85.8655% in data set [1] (S. mansoni NTS, 50 µM, relative to Worm + M199 control).

Turning to `C[C@@H]1N=C(c2ccccc2Cl)c2cc([N+](=O)[O-])ccc2NC1=O` [MZM, meclonazepam, reference compound], in the data set on S. mansoni adult worms (1 hr), the “Ratio GSH/GSSG” value was 55.11 and the “% Ratio GSH/GSSG” value is on record as 98.7253%. Moreover, in the data set with S. mansoni adult worms (3 hr), the “Ratio GSH/GSSG” value is given as 55.10 and the “% Ratio GSH/GSSG” value stood at 98.7201%. In data set [1], the “LD50 ex vivo S. mansoni NTS” value is 13.7 ± 0.87 µM, the viability at 0.5 µM is 93.3%, the viability at 1 µM came out at 87.2% and the viability at 5 µM came out at 64.8%. In data set [1], this compound returned a viability at 10 µM of 57.8%, a viability at 20 µM of 43.9% and a viability at 30 µM of 35.2%.

With `O=C(C1CCCCC1)N1CC(=O)N2CCc3ccccc3C2C1` (stereo not shown) [PZQ, praziquantel], in the data set on S. mansoni adult worms (1 hr), the “Ratio GSH/GSSG” value is 55.34 and the “% Ratio GSH/GSSG” value stood at 99.1418%. For the same compound, in the data set on S. mansoni adult worms (3 hr), the “Ratio GSH/GSSG” value was found to be 55.09 and the “% Ratio GSH/GSSG” value turned out to be 98.6979%. In data set [1], the “LD50 ex vivo S. mansoni NTS” value amounted to 27.1 ± 2.27 µM and the viability at 20 µM amounted to 58.2%. Moreover, the viability at 0.5 µM in data set [1] (S. mansoni NTS, Conc. 0.5 µM, read-out: % viability) was found to be 94.3%. Besides, the viability at 1 µM in data set [1] (S. mansoni NTS, Conc. 1 µM, read-out: % viability) was found to be 91.8%. Moreover, in data set [1] (S. mansoni NTS, Conc. 5 µM, read-out: % viability), the viability at 5 µM was found to be 85.6%. The viability at 10 µM in data set [1] (S. mansoni NTS, Conc. 10 µM, read-out: % viability) stood at 71.9%. In data set [1] (S. mansoni NTS, Conc. 30 µM, read-out: % viability), the viability at 30 µM amounted to 35.8%.
